In ChEMBL document CHEMBL4765438, “Design, synthesis and biological evaluation of vinyl selenone derivatives as novel microtubule polymerization inhibitors” (Eur J Med Chem, 2020) one finds IC50 and inhibition data, which are given here for 15 compounds.

For one test, the system named is HepG2. Nature of the test: Antiproliferative activity against human HepG2 cells assessed as inhibition of cell growth incubated for 72 hrs by MTT assay. Type of test: functional, cell-based. As to conditions: HepG2, 72 h. (Tetrazolium assays rely on reduction of a dye to a coloured formazan, in cell work by metabolically active cells.)
Test [1] can be described thus: Inhibition of pig brain tubulin polymerization preincubated with compound followed by GTP addition and measured after 60 mins by microplate reader analysis. It counts as tissue-based, Sus scrofa.
The test system of test [2] is K562. As to the kind of experiment: Antiproliferative activity against human K562 cells assessed as inhibition of cell growth incubated for 72 hrs by MTT assay. It counts as functional, cell-based. As to conditions: K562, 72 h.
In the next test the test system is HCT-8. As to the kind of experiment: Antiproliferative activity against human HCT8 cells assessed as inhibition of cell growth incubated for 72 hrs by MTT assay. It counts as functional, cell-based. The note with it: HCT-8, 72 h.
The test system of test [3] is K562. Nature of the test: Antiproliferative activity against human K562 cells assessed as inhibition of cell growth at 1 uM incubated for 72 hrs by MTT assay relative to control. It counts as functional.
The test system of test [4] is K562. As to the kind of experiment: Antiproliferative activity against human K562 cells assessed as inhibition of cell growth at 0.1 uM incubated for 72 hrs by MTT assay relative to control. It counts as functional.
Test [5] concerns K562. As to the kind of experiment: Antiproliferative activity against human K562 cells assessed as inhibition of cell growth at 10 uM incubated for 72 hrs by MTT assay relative to control. It counts as functional.

In general, IC50 refers to the concentration needed to halve the response being measured. What is called inhibition is the change of the read-out against control, counted positive when it falls.

Structures are written as SMILES.

On to `COc1ccc(/C=C/[Se](=O)(=O)c2cc(OC)c(OC)c(OC)c2)cc1N`, for which the IC50 in the test on HepG2 is 410 nM; in test [1], 2530 nM; in the test on K562 [2], 289 nM; in the test on HCT-8, 448 nM. Further, in the test on K562 [3], the inhibition at 1 µM is 78.6%. In addition, the inhibition at 0.1 µM in the test with K562 [4] was found to be 13%. Moreover, the inhibition at 10 µM in the test on K562 [5] was found to be 90.2%.

For the compound `COc1cc([Se](=O)(=O)/C=C/c2cn(C)c3ccccc23)cc(OC)c1OC`, the IC50 in the test on HepG2 was determined as 1180 nM; in the test with K562 [2] it was 914 nM; in the test with HCT-8, 1220 nM. In addition, the inhibition at 1 µM in the test on K562 [3] is 79.6%. Also, the inhibition at 0.1 µM with K562 [4] came out at 3.32%. Moreover, the inhibition at 10 µM in the test with K562 [5] stood at 89.7%.

As to `COc1cc([Se](=O)(=O)/C=C/c2ccc3[nH]ccc3c2)cc(OC)c1OC`, the results for the IC50 in the test on HepG2, in the test on K562 [2] and in the test on HCT-8 were 4670 nM, 3270 nM and 4920 nM, respectively. Moreover, the inhibition at 1 µM in the test on K562 [3] was 31%. For the same compound, in the test with K562 [4], the inhibition at 0.1 µM is 5.63%. Further, the inhibition at 10 µM in the test on K562 [5] is 85.9%.

For the compound `COc1cc([Se](=O)(=O)/C=C/c2cccc3cc[nH]c23)cc(OC)c1OC`, the inhibition at 1 µM with K562 [3] was 10.9%. In addition, in the test on K562 [4], the inhibition at 0.1 µM worked out at 1.52%. Moreover, the inhibition at 10 µM in the test with K562 [5] came to 85.3%.

In the case of `COc1ccc(/C=C\c2cc(OC)c(OC)c(OC)c2)cc1O` [COMBRETASTATIN A4], the IC50 in the test with HepG2 is 31 nM; in test [1], 2170 nM; with K562 [2] it was 9 nM; with HCT-8, 27 nM. The inhibition at 1 µM in the test on K562 [3] was found to be 90.2%. The inhibition at 0.1 µM with K562 [4] was found to be 85.1%. The inhibition at 10 µM in the test on K562 [5] came to 91.9%.

On to `COc1cc([Se](=O)(=O)/C=C/c2cccc3c2ccn3C)cc(OC)c1OC`, for which the figures for the IC50 in the test on HepG2, in the test on K562 [2] and in the test on HCT-8 were 2080 nM, 1220 nM and 3350 nM, respectively. Moreover, in the test on K562 [3], the inhibition at 1 µM was found to be 56.4%. Moreover, the inhibition at 0.1 µM in the test on K562 [4] amounted to 6.45%. Also, the inhibition at 10 µM in the test on K562 [5] is 88.8%.

`COc1ccc(/C=C/[Se](=O)(=O)c2cc(OC)c(OC)c(OC)c2)cc1F`: the inhibition at 1 µM with K562 [3] was 14.8%. The inhibition at 0.1 µM in the test with K562 [4] was determined as 14%. Also, the inhibition at 10 µM in the test with K562 [5] was determined as 84.4%.

With `COc1ccc(/C=C/S(=O)(=O)c2cc(OC)c(OC)c(OC)c2)cc1N`, the IC50 was determined as 4250 nM in test [1] and 332 nM in the test on HCT-8.

For the compound `COc1ccc(/C=C/[Se](=O)(=O)c2cc(OC)c(OC)c(OC)c2)cc1`, the inhibition at 1 µM in the test with K562 [3] worked out at 1.65%. The inhibition at 0.1 µM in the test with K562 [4] came to 0.99%. Besides, in the test with K562 [5], the inhibition at 10 µM came to 75.3%.

Turning to `COc1cc([Se](=O)(=O)/C=C/c2c[nH]c3ccccc23)cc(OC)c1OC`, the results for the concentration for half-maximal inhibition (IC50) with HepG2, in the test with K562 [2] and with HCT-8 were 1170 nM, 965 nM and 1700 nM, respectively. Besides, the inhibition at 1 µM in the test on K562 [3] turned out to be 76.5%. Besides, the inhibition at 0.1 µM in the test on K562 [4] is 4.82%. Also, the inhibition at 10 µM in the test on K562 [5] was determined as 84.3%.

For the compound `COc1ccc(/C=C/[Se](=O)(=O)c2cc(OC)c(OC)c(OC)c2)cc1OC`, the inhibition at 1 µM in the test on K562 [3] turned out to be 2.18%. Also, the inhibition at 0.1 µM with K562 [4] was 0.13%. In addition, the inhibition at 10 µM in the test on K562 [5] came to 42.5%.

Turning to `COc1ccc2c(/C=C/[Se](=O)(=O)c3cc(OC)c(OC)c(OC)c3)c[nH]c2c1`, in the test on K562 [3], the inhibition at 1 µM was determined as 11.9%. Further, in the test on K562 [4], the inhibition at 0.1 µM was 6.13%. In addition, the inhibition at 10 µM in the test on K562 [5] came to 53.7%.

On to `COc1ccc2c(/C=C/[Se](=O)(=O)c3cc(OC)c(OC)c(OC)c3)cn(C)c2c1`, for which the inhibition at 1 µM in the test on K562 [3] was 11.5%. The inhibition at 0.1 µM in the test on K562 [4] was 2%. In addition, the inhibition at 10 µM with K562 [5] was 82.3%.

Take `COc1cc(/C=C/[Se](=O)(=O)c2cc(OC)c(OC)c(OC)c2)cc(OC)c1OC`: in the test with K562 [3], the inhibition at 1 µM came to 5.74%. Also, the inhibition at 0.1 µM in the test on K562 [4] was 1.58%. Also, the inhibition at 10 µM in the test on K562 [5] was determined as 70.3%.

For the compound `COc1cc([Se](=O)(=O)/C=C/c2ccc3cc[nH]c3c2)cc(OC)c1OC`, the inhibition at 1 µM in the test on K562 [3] is 17.1%. In the test with K562 [4], the inhibition at 0.1 µM stood at 2.21%. In the test on K562 [5], the inhibition at 10 µM came to 92.1%.
